From patent US10239873B2, “7-azaindole or 4,7-diazaindole derivatives as IKKϵ epsilon and TBK1 inhibitor and pharmaceutical composition comprising same” (GREEN CROSS CORPORATION, priority 2015, dated 2019)

Key:
[1] = target: T1, IKKε (Homo sapiens, UniProt Q14164); test: ADP-Glo Kinase Assay, inhibition activity on IKKε; type: biochemical
T1 construct: purchased Promega and/or Invitrogen V4158; PR8031B; V3991 (not assigned to the two kinases)
T1 sequence (Q14164 1-716): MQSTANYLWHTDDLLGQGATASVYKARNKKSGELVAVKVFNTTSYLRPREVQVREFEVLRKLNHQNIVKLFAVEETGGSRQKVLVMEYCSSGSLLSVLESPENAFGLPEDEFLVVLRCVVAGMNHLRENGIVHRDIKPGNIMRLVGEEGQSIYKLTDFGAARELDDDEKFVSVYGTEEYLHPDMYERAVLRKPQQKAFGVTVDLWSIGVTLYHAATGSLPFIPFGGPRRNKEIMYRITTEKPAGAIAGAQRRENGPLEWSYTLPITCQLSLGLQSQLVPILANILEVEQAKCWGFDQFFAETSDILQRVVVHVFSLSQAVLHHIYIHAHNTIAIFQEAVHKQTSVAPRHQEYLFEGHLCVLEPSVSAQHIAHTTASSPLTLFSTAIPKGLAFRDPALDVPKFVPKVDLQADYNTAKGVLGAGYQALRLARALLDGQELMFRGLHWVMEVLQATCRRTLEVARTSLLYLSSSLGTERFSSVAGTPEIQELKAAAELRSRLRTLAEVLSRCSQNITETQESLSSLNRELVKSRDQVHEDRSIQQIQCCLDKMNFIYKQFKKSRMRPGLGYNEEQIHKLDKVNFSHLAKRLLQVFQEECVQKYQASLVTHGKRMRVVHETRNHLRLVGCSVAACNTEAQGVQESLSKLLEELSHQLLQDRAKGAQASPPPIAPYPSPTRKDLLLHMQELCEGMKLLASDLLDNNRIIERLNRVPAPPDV
Outline: (§1)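 Kinase activity measured with the ADP-Glo luminescent ADP-detection kit per manufacturer's protocol, using IKKε or TBK1 kinase enzyme systems. Reaction buffer: 40 mM Tris (pH 7.5), 20 mM MgCl2, 0.1 mg/mL BSA; luminescence read on a luminometer.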

[2] = target: T2, TBK1 (Homo sapiens, UniProt Q9UHD2); test: ADP-Glo Kinase Assay, inhibition activity on TBK1; type: biochemical
T2 construct: purchased Promega (Invitrogen is also named in the same bracket) V4158; PR8031B; V3991 (not assigned to the two kinases)
T2 sequence (Q9UHD2 1-729): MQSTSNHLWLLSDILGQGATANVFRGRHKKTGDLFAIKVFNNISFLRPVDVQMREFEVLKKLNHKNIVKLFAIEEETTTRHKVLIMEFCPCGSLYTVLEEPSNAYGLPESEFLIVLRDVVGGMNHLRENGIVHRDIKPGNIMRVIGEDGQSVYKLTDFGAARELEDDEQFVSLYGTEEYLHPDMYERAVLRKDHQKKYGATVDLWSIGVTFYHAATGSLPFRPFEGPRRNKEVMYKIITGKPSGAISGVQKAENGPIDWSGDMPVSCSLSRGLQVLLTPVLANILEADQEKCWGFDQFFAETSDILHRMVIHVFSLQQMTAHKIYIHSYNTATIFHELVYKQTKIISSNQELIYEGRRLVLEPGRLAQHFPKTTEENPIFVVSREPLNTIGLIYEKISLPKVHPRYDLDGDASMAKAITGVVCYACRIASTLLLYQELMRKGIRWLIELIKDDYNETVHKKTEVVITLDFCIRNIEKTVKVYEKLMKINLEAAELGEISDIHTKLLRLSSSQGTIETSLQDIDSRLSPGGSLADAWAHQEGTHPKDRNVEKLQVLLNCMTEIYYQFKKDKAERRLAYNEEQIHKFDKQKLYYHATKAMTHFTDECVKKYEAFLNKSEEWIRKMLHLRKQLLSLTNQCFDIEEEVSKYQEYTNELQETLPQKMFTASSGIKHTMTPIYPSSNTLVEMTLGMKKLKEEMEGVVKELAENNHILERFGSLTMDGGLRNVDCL
Outline: as §1

Row | Structure (SMILES) | IC50 [1] | IC50 [2]
1 | CC(C)NC(=O)N1CCC(c2c[nH]c3ncc(-c4ccc(CN5CCOCC5)s4)cc23)=CC1(C)C [Example 114, N-isopropyl-2,2-dimethyl-4-(5-(5-(morpholinomethyl)thiophen-2-yl)-1H-pyrrolo[2,3-b]pyridin-3-yl)-5,6-dihydropyridine-1(2H)-carboxamide] | 8 nM | 5.9 nM
2 | CC(C)NC(=O)N1CC=C(c2c[nH]c3ncc(-c4ccc(CN5CCOCC5)cc4)cc23)CC1 [Example 30, N-isopropyl-4-(5-(4-(morpholinomethyl)phenyl)-1H-pyrrolo[2,3-b]pyridin-3-yl)-5,6-dihydropyridine-1(2H)-carboxamide] | 8.8 nM | 4.5 nM
3 | COc1cccc(-c2cnc3[nH]cc(C4=CCN(C(=O)NC(C)C)CC4)c3c2)c1 [Example 14, N-isopropyl-4-(5-(3-methoxyphenyl)-1H-pyrrolo[2,3-b]pyridin-3-yl)-3,6-dihydropyridine-1(2H)-carboxamide] | > 10000 nM | 15 nM
4 | CC1C=C(c2c[nH]c3ncc(-c4ccc(CN5CCOCC5)s4)cc23)CCN1C(=O)NC1CCCC1 (stereo not drawn) [Example 106, N-cyclopentyl-2-methyl-4-(5-(5-(morpholinomethyl)thiophen-2-yl)-1H-pyrrolo[2,3-b]pyridin-3-yl)-5,6-dihydropyridine-1(2H)-carboxamide] | 4.7 nM | 3.1 nM
5 | CCC1C=C(c2c[nH]c3ncc(-c4ccc(CN5CCN(C)CC5)s4)cc23)CCN1C(=O)NC(C)C (stereo not drawn) [Example 111, 2-Ethyl-N-isopropyl-4-(5-(5-((4-methylpiperazin-1-yl)methyl)thiophen-2-yl)-1H-pyrrolo[2,3-b]pyridin-3-yl)-5,6-dihydropyridine-1(2H)-carboxamide] | 77 nM | 18 nM
6 | CC(C)NC(=O)N1CC=C(c2c[nH]c3ncc(-c4cccc(C(=O)N5CCN(C)CC5)c4)cc23)CC1 [Example 31, N-isopropyl-4-(5-(3-(4-methylpiperazine-1-carbonyl)phenyl)-1H-pyrrolo[2,3-b]pyridin-3-yl)-5,6-dihydropyridine-1(2H)-carboxamide] | 46 nM | 15 nM
7 | CC1C=C(c2c[nH]c3ncc(-c4ccc(CN5CCOCC5)s4)cc23)CC(C)N1C(=O)NC1CCCC1 (stereo not drawn) [Example 116, N-cyclopentyl-2,6-dimethyl-4-(5-(5-(morpholinomethyl)thiophen-2-yl)-1H-pyrrolo[2,3-b]pyridin-3-yl)-3,6-dihydropyridine-1(2H)-carboxamide] | 1520 nM | 1280 nM
8 | CC(=O)Nc1cccc(-c2cnc3[nH]cc(C4=CCN(C(=O)NC(C)C)CC4)c3c2)c1 [Example 19, 4-(5-(3-Acetamidophenyl)-1H-pyrrolo[2,3-b]pyridin-3-yl)-N-isopropyl-3,6-dihydropyridine-1(2H)-carboxamide] | 7 nM | 6.4 nM
9 | CC(C)NC(=O)N1CC=C(c2c[nH]c3ncc(-c4cccc(F)c4)cc23)CC1 [Example 15, 4-(5-(3-Fluorophenyl)-1H-pyrrolo[2,3-b]pyridin-3-yl)-N-isopropyl-3,6-dihydropyridine-1(2H)-carboxamide] | > 10000 nM | 11 nM
10 | CC1C=C(c2c[nH]c3ncc(-c4ccc(CN5CCN(C)CC5)s4)cc23)CCN1C(=O)NC1CC1 (stereo not drawn) [Example 96, N-cyclopropyl-2-methyl-4-(5-(5-((4-methylpiperazin-1-yl)methyl)thiophen-2-yl)-1H-pyrrolo[2,3-b]pyridin-3-yl)-5,6-dihydropyridine-1(2H)-carboxamide] | 6.5 nM | 3.1 nM
11 | CN1CCN(Cc2ccc(-c3cnc4[nH]cc(C5=CCN(C(=O)c6cccs6)CC5)c4c3)s2)CC1 [Example 205, (4-(5-(5-((4-methylpiperazin-1-yl)methyl)thiophen-2-yl)-1H-pyrrolo[2,3-b]pyridin-3-yl)-5,6-dihydropyridin-1(2H)-yl)(thiophen-2-yl)methanone] | 23 nM | 3.3 nM
12 | CC1C=C(c2c[nH]c3ncc(-c4ccc(S(C)(=O)=O)cc4)cc23)CCN1C(=O)NC1CCCC1 (stereo not drawn) [Example 105, N-cyclopentyl-2-methyl-4-(5-(4-(methylsulfonyl)phenyl)-1H-pyrrolo[2,3-b]pyridin-3-yl)-5,6-dihydropyridine-1(2H)-carboxamide] | 22 nM | 25 nM
13 | CC(C)NC(=O)N1CC=C(c2c[nH]c3ncc(-c4ccc(CN5CCN(C)CC5)s4)cc23)CC1 [Example 33, N-isopropyl-4-(5-(5-((4-methylpiperazin-1-yl)methyl)thiophen-2-yl)-1H-pyrrolo[2,3-b]pyridin-3-yl)-5,6-dihydropyridine-1(2H)-carboxamide] | 6.9 nM | 1.1 nM
14 | CC(C)CC(=O)N1CC=C(c2c[nH]c3ncc(-c4ccc(CN5CCOCC5)s4)cc23)CC1 [Example 10, 3-Methyl-1-(4-(5-(5-(morpholinomethyl)thiophen-2-yl)-1H-pyrrolo[2,3-b]pyridin-3-yl)-3,6-dihydropyridin-1(2H)-yl)butan-1-one] | 130 nM | 75 nM
15 | CC1CN(C(=O)NC2CCCC2)CC=C1c1c[nH]c2ncc(-c3cccc(S(N)(=O)=O)c3)cc12 (stereo not drawn) [Example 123, N-cyclopentyl-5-methyl-4-(5-(3-sulfamoylphenyl)-1H-pyrrolo[2,3-b]pyridin-3-yl)-5,6-dihydropyridine-1(2H)-carboxamide] | 80 nM | 28 nM
16 | CC(C)NC(=O)N1CC=C(c2c[nH]c3ncc(-c4ccc(CN5CCCC5)s4)cc23)CC1 [Example 28, N-isopropyl-4-(5-(5-(pyrrolidin-1-ylmethyl)thiophen-2-yl)-1H-pyrrolo[2,3-b]pyridin-3-yl)-5,6-dihydropyridine-1(2H)-carboxamide] | 58 nM | 18 nM
17 | CC1CN(C(=O)NC2CCCC2)CC=C1c1c[nH]c2ncc(-c3ccc(CN4CCOCC4)s3)cc12 (stereo not drawn) [Example 127, N-cyclopentyl-5-methyl-4-(5-(5-(morpholinomethyl)thiophen-2-yl)-1H-pyrrolo[2,3-b]pyridin-3-yl)-5,6-dihydropyridine-1(2H)-carboxamide] | 100 nM | 4 nM
18 | CC(=O)N1CC=C(c2c[nH]c3ncc(-c4ccc(CN5CCOCC5)s4)cc23)CC1 [Example 8, 1-(4-(5-(5-(Morpholinomethyl)thiophen-2-yl)-1H-pyrrolo[2,3-b]pyridin-3-yl)-3,6-dihydropyridin-1(2H)-yl)ethan-1-one] | 660 nM | 140 nM
19 | CCC1C=C(c2c[nH]c3ncc(-c4ccc(CN5CCOCC5)s4)cc23)CCN1C(=O)NC(C)C (stereo not drawn) [Example 109, 2-Ethyl-N-isopropyl-4-(5-(5-(morpholinomethyl)thiophen-2-yl)-1H-pyrrolo[2,3-b]pyridin-3-yl)-5,6-dihydropyridine-1(2H)-carboxamide] | 390 nM | 220 nM
20 | CC1C=C(c2c[nH]c3ncc(-c4ccc(CN5CCN(C(=O)OC(C)(C)C)CC5)s4)cc23)CCN1C(=O)NC1CC1 (stereo not drawn) [Example 93, tert-Butyl 4-((5-(3-(1-(cyclopropylcarbamoyl)-6-methyl-1,2,3,6-tetrahydropyridin-4-yl)-1H-pyrrolo[2,3-b]pyridin-5-yl)thiophen-2-yl)methyl)piperazine-1-carboxylate] | 48 nM | 18 nM
21 | CC1C=C(c2c[nH]c3ncc(-c4ccc(CN5CCN(C)CC5)s4)cc23)CCN1C(=O)NC1CCCC1 (stereo not drawn) [Example 102, N-cyclopentyl-2-methyl-4-(5-(5-((4-methylpiperazin-1-yl)methyl)thiophen-2-yl)-1H-pyrrolo[2,3-b]pyridin-3-yl)-5,6-dihydropyridine-1(2H)-carboxamide] | 13 nM | 4.4 nM
